ChEMBL document CHEMBL1201862, “PubChem BioAssay data set” (2004)
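Five compound concentrations were applied to cells in 96-well plates for 48 hours; endpoints were derived by simple linear interpolation of the resulting dose-response curve. GI50 marks 50% less growth.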 The source made the active and inactive calls. Cut-off read from the data, not from the text of the source: active = GI50 up to about 1.1 µM and inactive = higher.

Legend:
Test in all cases: NCI tumour cell line growth inhibition, 48 h
[1] = test system: 786-0
[2] = test system: A498
[3] = test system: A549
[4] = test system: ACHN
[5] = test system: CAKI-1
[6] = test system: CCRF-CEM
[7] = test system: COLO 205
[8] = test system: DLD-1
[9] = test system: DMS-114
[10] = test system: DMS-273
[11] = test system: EKVX
[12] = test system: HCC 2998
[13] = test system: HCT-116
[14] = test system: HCT-15
[15] = test system: HL-60
[16] = test system: HOP-18
[17] = test system: HOP-92
[18] = test system: HT-29
[19] = test system: IGROV-1
[20] = test system: K562
[21] = test system: KM-20L2
[22] = test system: KM12
[23] = test system: LOX IMVI
[24] = test system: LXFL 529
[25] = test system: M14
[26] = test system: M19-MEL
[27] = test system: MOLT-4
[28] = test system: Malme-3M
[29] = test system: NCI-H226
[30] = test system: NCI-H23
[31] = test system: NCI-H460
[32] = test system: NCI-H522
[33] = test system: OVCAR-3
[34] = test system: OVCAR-4
[35] = test system: OVCAR-5
[36] = test system: OVCAR-8
[37] = test system: RPMI-8226
[38] = test system: SF-268
[39] = test system: SF-295
[40] = test system: SF-539
[41] = test system: SK-MEL-2
[42] = test system: SK-OV-3
[43] = test system: SN12C
[44] = test system: SNB-19
[45] = test system: SW-620
[46] = test system: TK-10
[47] = test system: U-251
[48] = test system: UACC-257
[49] = test system: UACC-62
[50] = test system: UO-31
[51] = test system: XF498
[52] = test system: HOP-62
[53] = test system: RXF 393
[54] = test system: SK-MEL-28
[55] = test system: SK-MEL-5
[56] = test system: SNB-75
[57] = test system: SR
[58] = test system: SNB-78

Measured: GI50

O=C(CCC(=O)Nc1ccc(Cl)c(Cl)c1)CC(=O)c1ccc(Cl)cc1
inactive: [1] > 100 µM | [2] > 100 µM | [3] > 100 µM | [4] > 100 µM | [5] > 100 µM | [6] > 100 µM | [7] > 100 µM | [8] > 100 µM | [9] > 100 µM | [10] > 100 µM | [11] > 100 µM | [12] > 100 µM | [13] > 100 µM | [15] > 100 µM | [16] 80.7 µM | [17] 24.8 µM | [18] > 100 µM | [19] > 100 µM | [20] > 100 µM | [21] > 100 µM | [22] > 100 µM | [23] > 100 µM | [24] 83.9 µM | [25] > 100 µM | [26] > 100 µM | [27] > 100 µM | [28] > 100 µM | [29] > 100 µM | [30] > 100 µM | [31] > 100 µM | [32] > 100 µM | [33] > 100 µM | [34] > 100 µM | [35] > 100 µM | [36] > 100 µM | [37] > 100 µM | [38] > 100 µM | [39] > 100 µM | [40] > 100 µM | [41] > 100 µM | [42] > 100 µM | [43] > 100 µM | [44] > 100 µM | [45] > 100 µM | [46] > 100 µM | [47] > 100 µM | [48] > 100 µM | [49] 47.8 µM | [50] > 100 µM | [51] > 100 µM
> 100 µM: [14]

O=C(CC(=O)n1nc(-c2ccccc2)c(/N=N/c2ccccc2Cl)c1-c1ccccc1)Nc1ccc(Cl)cc1
> 43 µM: [14]
inactive: [1] > 52.7 µM | [2] > 100 µM | [3] > 54.1 µM | [4] > 100 µM | [5] > 100 µM | [6] > 44.9 µM | [7] > 44.5 µM | [8] > 43.6 µM | [9] > 41.7 µM | [10] > 64.3 µM | [11] > 100 µM | [12] > 100 µM | [13] > 41.3 µM | [15] > 42.8 µM | [16] > 100 µM | [52] > 100 µM | [17] > 100 µM | [18] > 54.6 µM | [19] > 100 µM | [20] > 53.1 µM | [21] > 57.3 µM | [22] > 100 µM | [23] > 44.4 µM | [24] > 100 µM | [25] > 100 µM | [26] 21.7 µM | [27] > 100 µM | [28] > 100 µM | [29] > 100 µM | [30] > 100 µM | [31] > 48.1 µM | [32] > 100 µM | [33] > 100 µM | [34] > 100 µM | [35] > 100 µM | [36] > 100 µM | [37] > 49.3 µM | [53] > 100 µM | [38] > 100 µM | [39] > 100 µM | [40] > 100 µM | [54] > 100 µM | [41] > 100 µM | [55] > 100 µM | [42] > 100 µM | [43] > 100 µM | [44] > 100 µM | [56] > 100 µM | [57] > 100 µM | [45] > 48.6 µM | [46] > 96.2 µM | [47] > 38.6 µM | [48] > 83.2 µM | [49] > 100 µM | [50] > 100 µM | [51] > 100 µM

O=C1C[C@H]2CC3(CC[C@H]2CN1)OCCO3
inactive: [1] > 100 µM | [2] > 100 µM | [3] > 100 µM | [5] > 100 µM | [6] > 100 µM | [7] > 100 µM | [8] > 100 µM | [10] > 100 µM | [11] > 100 µM | [12] > 100 µM | [13] > 100 µM | [15] > 100 µM | [52] > 100 µM | [17] > 100 µM | [18] > 100 µM | [19] > 100 µM | [20] > 100 µM | [22] > 100 µM | [23] > 100 µM | [24] > 100 µM | [25] > 100 µM | [26] > 100 µM | [27] > 100 µM | [28] > 100 µM | [30] > 100 µM | [31] > 100 µM | [32] > 100 µM | [33] > 100 µM | [34] > 100 µM | [36] > 100 µM | [37] > 100 µM | [53] > 100 µM | [38] > 100 µM | [39] > 100 µM | [40] > 100 µM | [54] > 100 µM | [41] > 100 µM | [55] > 100 µM | [42] > 100 µM | [43] > 100 µM | [44] > 100 µM | [56] > 100 µM | [58] > 100 µM | [45] > 100 µM | [46] > 100 µM | [47] > 100 µM | [48] > 100 µM | [49] > 100 µM | [50] > 100 µM | [51] > 100 µM
> 100 µM: [14]
